# ± gives the expanded uncertainty stated by the source.
# What was measured:
# [1] = Liquid; for mass density: 293.15 K, 101.33 kPa, Vibrating tube method
# [2] = refractive index (Na D-line) (dimensionless); conditions: 101.33 kPa, Liquid, Standard Abbe refractometry
mass density [1] [kg/m3],vapor or sublimation pressure ([1]; 439.35 K) [kPa],refractive index ([2]; 293.15 K),vapor or sublimation pressure ([1]; 472.25 K) [kPa],refractive index ([2]; 293.1 K),vapor or sublimation pressure ([1]; 353.61 K) [kPa],vapor or sublimation pressure ([1]; 353.71 K) [kPa],SMILES
935 ± 0.3,95.5 ± 2.5,1.3835 ± 0.0007,,,,,CCO[Si](OCC)(OCC)OCC [tetraethoxysilane]
1024.5 ± 0.3,,,95.5 ± 2.5,1.537 ± 0.0008,,,CC(=O)c1ccccc1 [acetophenone]
788.4 ± 0.3,,1.3877 ± 0.0007,,,95.5 ± 2.5,95.5 ± 2.5,CC(C)(C)O [2-methylpropan-2-ol]
